Experimental findings from patent US20190046513A1, “COMBINATION THERAPIES OF HDAC INHIBITORS AND TUBULIN INHIBITORS” (HUYA Bioscience International, LLC, priority 2017, published 2019) are described below.

Structures can show the parent of a compound that is named as a salt.

Common to all, as to type: in vivo, BALB/c mice
The subject of assay [1] is 4T1 murine mammary carcinoma cells. The assay can be described thus: Tumor growth delay, subcutaneous 4T1 tumors (Example 1, Study Group A). The conditions noted are these: for Median TTE: endpoint tumor volume 1000 mm^3, n=10; for % TGD: vs vehicle group. As for the experimental part: (§1) In the present example, HBI-8000 was tested as monotherapy at 50 mg/kg, and in combination with eribulin mesylate at 0.3 mg/kg and 1.0 mg/kg. The experiment included a vehicle-treated group, and eribulin at 0.3 mg/kg and 1.0 mg/kg, which served as the control groups for analysis of efficacy.
Two study groups were used; in the first group (Study Group A) tumor growth inhibition and survival were measured. Tumors were measured twice per week until the study was ended on Day 21. Each animal was euthanized when its tumor attained the endpoint tumor volume of 1000 mm^3 or on the final day of the study, whichever came first, and the time to endpoint (TTE) for each mouse was calculated. Treatment response was determined from an analysis of percent tumor growth delay (% TGD), defined as the percent increase in the median time to endpoint (TTE) for treated versus control mice; and by log-rank significance of differences in survival among groups and regression responses.
Mice: Female BALB/c mice (Charles River Laboratories) were seven weeks old, with a body weight (BW) range of 15.6 to 20.2 grams on Day 1 of the study. The animals were fed ad libitum water (reverse osmosis, 1 ppm Cl), and NIH 31 Modified and Irradiated Lab Diet® consisting of 18.0% crude protein, 5.0% crude fat, and 5.0% crude fiber. The mice were housed on irradiated Enrich-O'Cobs™ Laboratory Animal Bedding in static microisolators on a 12-hour light cycle at 20-22° C. (68-72° F.) and 40-60% humidity.
Tumor Cells: 4T1 murine mammary carcinoma cells were maintained in Dulbecco's Modified Eagle Medium (DMEM) supplemented with 10% fetal bovine serum and 2 mM glutamine, 100 units/mL penicillin G sodium, 100 μg/mL streptomycin sulfate, and 25 μg/mL gentamicin. Cell cultures were maintained in tissue culture flasks in a humidified incubator at 37° C., in an atmosphere of 5% CO2 and 95% air.
Tumor Implantation: Cells were harvested during exponential growth, and resuspended in cold DMEM. Each mouse was inoculated subcutaneously in the right flank with 1×10^6 4T1 cells (0.1 mL of cell suspension). Tumors were calipered in two dimensions to monitor growth as their mean volume approached the desired 100-150 mm^3 range. Tumor burden was calculated using the formula:
where w=width and 1=length, in mm, of the tumor. Tumor weight may be estimated with the assumption that 1 mg is equivalent to 1 mm^3 of tumor volume. Nine days after tumor implantation, which was designated as Day 1 of the study, animals with individual tumor volumes from 108 to 126 mm^3 were sorted into treatment groups. For Study Group A the animals were sorted into 6 treatment groups (Table 1; n=10/group) with group mean tumor volume of 117 mm^3. For Study Group B the animals were also sorted into 6 treatment groups (Table 1; n=5/group) with group mean tumor volume of 117 mm^3.
Tumor Growth Delay: Tumors were measured using calipers twice per week, and each animal was euthanized when its tumor reached a volume of 1000 mm^3 or at the end of the study (D47), whichever came first. Animals that exited the study for tumor volume endpoint were documented as euthanized for tumor progression (TP), with the date of euthanasia. The time to endpoint (TTE) for analysis was calculated for each mouse by the following equation: […]
where TTE is expressed in days, endpoint volume is expressed in mm^3, b is the intercept, and m is the slope of the line obtained by linear regression of a log-transformed tumor growth data set. The data set consisted of the first observation that exceeded the endpoint volume used in analysis and the three consecutive observations that immediately preceded the attainment of this endpoint volume. The calculated TTE is usually less than the TP date, the day on which the animal was euthanized for tumor burden. […]

Assay [2] has the same test system. The assay can be described thus: Primary tumor volume distribution, 4T1 tumor-bearing mice (Example 2). The note with it: HBI-8000 50 mg/kg p.o. qd×16, eribulin 1 mg/kg i.v., FIG. 4. As for the experimental part:
(§2) In the present example, HBI-8000 was tested as monotherapy at 50 mg/kg, and in combination with eribulin mesylate at 1.0 mg/kg. The experiment included a vehicle-treated group, and eribulin at 1.0 mg/kg, which served as the control groups for analysis of efficacy.
(§3) Tumor Implantation: Cells were harvested during exponential growth, and resuspended in cold DMEM. Each mouse was inoculated subcutaneously in the right flank with 0.5×10^6 4T1 cells (0.1 mL of cell suspension). Tumors were calipered in two dimensions to monitor growth as their mean volume approached the desired 100-150 mm^3 range. Tumor burden was calculated using the formula:
where w=width and 1=length, in mm, of the tumor. Tumor weight may be estimated with the assumption that 1 mg is equivalent to 1 mm3 of tumor volume. Fourteen days after tumor implantation, which was designated as Day 1 of the study, animals with individual tumor volumes from animals with individual tumor volumes ranging from 75 to 108 mm3 were sorted into the “LOOK-SEE” group (n=15) and eight efficacy groups (n=10) with group mean tumor volumes of 95 mm3.
Treatment: On Day 1 of the study, mice bearing established 4T1 tumors began dosing according to the treatment plan described below. All agents were administered in dosing volumes of 10 mL/kg; volumes were adjusted according to BW of the individual animal. […]

Assay [3] has the same test system. The assay can be described thus: Lung metastasis count, 4T1 tumor-bearing mice (Example 2). The conditions noted are these: HBI-8000 50 mg/kg p.o. qd×16, eribulin 1 mg/kg i.v., Day 18, FIG. 3. The method, then: as §2
Two study groups were used; in the first group, a sentinel group (termed LOOK-SEE) tumor-bearing mice were monitored for the development of lung metastases until the number of metastatic nodules reached 30-50 per animal. After meeting that criteria, all animals in Group B, the main study group, were euthanized on Day 18, the lungs removed and processed for analysis of metastatic burden.
as §3
where w=width and 1=length, in mm, of the tumor. Tumor weight may be estimated with the assumption that 1 mg is equivalent to 1 mm3 of tumor volume. […]

Assay [4] shares this test system. The assay can be described thus: Lung metastasis count, 4T1 tumor-bearing mice (Example 1, Study Group B). The note with it: Example 1, monotherapies; Day 14. As for the experimental part: as §1
In the second group (Study Group B, tumor-bearing mice were monitored for the development of lung metastases until the number of metastatic nodules reached 30-50 per animal. All animals were euthanized on Day 14, the lungs removed and processed for analysis of metastatic burden.
where w=width and 1=length, in mm, of the tumor. Tumor weight may be estimated with the assumption that 1 mg is equivalent to 1 mm^3 of tumor volume. […]
Lung Metastasis: Animals were sacrificed at endpoint using isoflurane anesthesia and necropsies were performed to identify metastases. […] Percent inhibition was defined as the difference between the number of metastatic foci of the designated control group and the number of metastatic foci of the drug-treated group, expressed as a percentage of the number of metastatic foci of the designated control group: […]
Statistics: Prism (GraphPad) for Windows 6.07 was used for graphical presentations and statistical analyses. […] Logrank analysis includes the data for all animals in a group except those assessed as NTR deaths. […]

The mark [5] stands for this setting: Eribulin mesylate 0.3 mg/kg i.v., qowk × 2.
[6] abbreviates: Eribulin mesylate 1.0 mg/kg i.v., qowk × 2.
[7] abbreviates: HBI-8000 50 mg/kg p.o., qd × 21.

Regarding `C=C1C[C@@H]2CC[C@@]34C[C@H]5O[C@H]6[C@@H](O3)[C@H]3OC(CC[C@@H]3O[C@H]6C5O4)CC(=O)C[C@@H]3[C@@H](OC)[C@@H](C[C@H](O)CN)O[C@H]3CC3O[C@@H](CCC1O2)C[C@@H](C)C3=C` [Eribulin mesylate, 11,15:18,21:24,28 Triepoxy-7,9-ethano-12,15-methano-9H, 15H-furo[3,2-i]furo[2′,3′: 5,6]pyrano[4,3b][1,4]dioxacyclopentacosin-5(4H)-one,2-[(2S)-3-amino-2-hydroxypropyl]hexacosahydro-3 methoxy-26-methyl-20,27-bis(methylene)-, (2R,3R,3aS,7R,8aS,9S,10aR,11S,12R,13aR,13bS,15S,18S,21 S,24S,26R,28R,29aS)-, methanesulfonate (salt)], in assay [1] (setting [5]), the “Median TTE” value is 17.8 days and the “% TGD” value was found to be 6%. In addition, in assay [1] (setting [6]), the “Median TTE” value was 17.6 days and the “% TGD” value is 5%. The “primary tumor volume distribution” value in assay [2] is “did not produce a statistically significant decrease in primary tumor volume distribution”. Moreover, in assay [3], the metastatic lung foci result is given as “did not produce a statistically significant decrease in metastatic lung foci”. Moreover, in assay [4], the “number of lung metastatic foci” value is recorded as “did not significantly inhibit the number of lung metastatic foci”.

On to `Nc1cc(F)ccc1NC(=O)c1ccc(CNC(=O)/C=C/c2cccnc2)cc1` [HBI-8000, N-(2-amino-4-fluorophenyl)-4-[[[(2E)-1-oxo-3-(3-pyridinyl)-2-propen-1-yl]amino]methyl]benzamide], for which the tumor volume distribution result in assay [1] (Example 1, HBI-8000 monotherapy 50 mg/kg, P<0.01) is recorded as “significant ((P<0.01) reduction in the tumor volume distribution”. In assay [1] (setting [7]), the “Median TTE” value is 18.8 days and the “% TGD” value is 12%. The “primary tumor volume distribution” value in assay [2] is on record as “statistically significant (P<0.001) decrease in primary tumor volume distribution compared to vehicle controls”. The metastatic lung foci entry in assay [3] is on record as “statistically significant (P<0.05) decrease in metastatic lung foci”. The “number of lung metastatic foci” value in assay [4] is reported as “did not significantly inhibit the number of lung metastatic foci”.
